Assay results from the supplement of paper PMC10307832.

What was measured:
Assay in all cases: relative viability (nuclei count vs DMSO), 5 days (fraction); higher = more cells survive
[1] = compound: CCN1CCN(c2ccc(Nc3cc(N(C)C(=O)Nc4c(Cl)c(OC)cc(OC)c4Cl)ncn3)cc2)CC1 [BGJ398] + O=C(c1cc(Cc2n[nH]c(=O)c3ccccc23)ccc1F)N1CCN(C(=O)C2CC2)CC1 [Olaparib] (partner 8 µM)
In short: (§1)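 Lung cancer cell lines in 1536-well plates were dosed by pin tool the day after seeding, either with one drug alone or with a fixed anchor-drug dose plus five library-drug doses (not always all listed) in √10 steps. After 5 days, cells were fixed and their nuclei stained in one step (final 0.05% Triton X-100, 1% formaldehyde, 1 ug/ml Hoechst), then counted on 4× images. Relative viability is the nuclei count in treated wells divided by that in vehicle wells. Values are medians of duplicate plates.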

[2] = compound: CCN1CCN(c2ccc(Nc3cc(N(C)C(=O)Nc4c(Cl)c(OC)cc(OC)c4Cl)ncn3)cc2)CC1 [BGJ398] + C[C@@H](Oc1cc(-c2cnn(C3CCNCC3)c2)cnc1N)c1c(Cl)ccc(F)c1Cl [Crizotinib] (partner 1 µM)
In short: as §1

[3] = compound: C1=CC2=NC=CN=C2C=C1/C=C/3\C(=O)NC(=O)S3 + C[C@]1(O)C[C@@H](c2nc(-c3ccc4ccc(-c5ccccc5)nc4c3)c3c(N)nccn32)C1 [Linsitinib] (partner 1 µM)
In short: as §1

[4] = compound: CCN1CCN(c2ccc(Nc3cc(N(C)C(=O)Nc4c(Cl)c(OC)cc(OC)c4Cl)ncn3)cc2)CC1 [BGJ398] + Nc1nc2[nH]cc(CCc3ccc(C(=O)N[C@@H](CCC(=O)O)C(=O)O)cc3)c2c(=O)[nH]1 [Pemetrexed] (partner 0.2 µM)
In short: as §1

Row | Cell Line | relative viability ([1]; first compound 0.01 µM) | relative viability ([1]; first compound 0.03162 µM) | relative viability ([1]; first compound 0.1 µM) | relative viability ([1]; first compound 0.3162 µM) | relative viability ([1]; first compound 1 µM) | relative viability ([2]; first compound 0.01 µM) | relative viability ([2]; first compound 0.03162 µM) | relative viability ([2]; first compound 0.1 µM) | relative viability ([2]; first compound 0.3162 µM) | relative viability ([2]; first compound 1 µM) | relative viability ([3]; first compound 0.02 µM) | relative viability ([3]; first compound 0.06325 µM) | relative viability ([3]; first compound 0.2 µM) | relative viability ([3]; first compound 0.6325 µM) | relative viability ([3]; first compound 2 µM) | relative viability ([4]; first compound 0.01 µM) | relative viability ([4]; first compound 0.03162 µM) | relative viability ([4]; first compound 0.1 µM) | relative viability ([4]; first compound 0.3162 µM) | relative viability ([4]; first compound 1 µM)
1 | LXF-289 | 1.01 | 0.973 | 1.17 | 0.919 | 1.07 | 0.817 | 0.764 | 0.761 | 0.705 | 0.637 | 0.928 | 0.921 | 0.993 | 0.941 | 0.933 | 0.923 | 0.849 | 0.88 | 0.801 | 0.923
2 | PC-14 | 0.322 | 0.346 | 0.254 | 0.289 | 0.27 | 0.925 | 0.883 | 0.859 | 0.937 | 0.898 | 0.88 | 0.952 | 0.994 | 1.02 | 0.993 | 0.13 | 0.132 | 0.131 | – | 0.151
3 | NCI-H650 | 0.358 | 0.413 | 0.377 | 0.375 | 0.365 | 0.57 | 0.791 | 0.808 | 0.857 | 0.727 | 1.13 | 0.922 | 1.17 | 0.832 | 0.731 | 0.988 | 0.931 | 0.995 | 0.956 | 0.974
4 | NCI-H1666 | 0.759 | 0.77 | 0.81 | 0.725 | 0.679 | 0.944 | 1.06 | 0.938 | 1.3 | 0.96 | 0.789 | 0.848 | 0.807 | 0.843 | 0.911 | 0.919 | 0.935 | 0.8 | 0.929 | 0.737
